In test [1] the test system is Ile113→Thr mutant SOD-1 in human 293 cells. In words: SOD-1 levels in transiently transfected 293 cells (immunoblot). Conditions: 5 μM, 24 hours, FIG. 5. In general terms: In western blotting, separated proteins are transferred to a membrane and probed.
Description: The human kidney cell line designated 293 (human 293 cells or 293 cells)was obtained from the American Type Culture Collection (ATCC), 12301 Parklawn Drive, Rockville, Md., 20852 (ATCC #CRL 1573) and grown in Dulbecco's modified Eagle's medium with 4.6 g/L glucose, 10% heat-inactivated horse serum (Gibco/Life Technologies Inc. Gaithersburg, Md.). The human 293 cells were maintained at 37° C. in an atmosphere of 5% CO2. The 293 cells were transiently transfected using the calcium phosphate method (Chen, C. et al., Biotechniques 6: 632 (1988). The pCMV-113 SOD-1 expression vector was introduced into 293 cells and 24 hours later, the cells were incubated with either compound 34, compound 14, or compound 24, all at a concentration of 5 μM, for a duration of 24 hours. The known MCP and other protease inhibitory compounds were solubilized in dimethyl sulfoxide (DMSO). Other 293 cell cultures were incubated with an equal volume of DMSO or left in medium only as negative controls.
Approximately 48 hours prior to receiving test compounds, 5×10^5 293 cells were seeded in 36 mm dishes and maintained at 37° C. in an atmosphere of 5% CO2. Cells were incubated with MCP inhibitors (compound 34, 14 or 24) or with DMSO as a negative control for a duration of 24 hours. Cell lysates were prepared by lysing the cells in approximately 75 μl of phosphate-buffered saline (PBS) by freeze/thaw cycling. Protein concentrations of the cell lysates were determined using the BCA method (Pierce, Rockford, Ill.) and 2 to 2.5 μg of each sample was electrophoresed on a 4-20% polyacrylamide geol (Novex, San Diego, Calif.) using a Tris/glycine/SDS (25 mM Tris/192 mM glycine/0.1% SDS) buffer system. […] Stained bands corresponding to SOD-1 protein were quantitated using a DocuGel V image analysis system and RFLPscan software (Scanalytics, Billerica, Mass.). Levels of SOD-1 are expressed as units of induction relative to the negative control (i.e., units of experimental divided by units of control).
The next test concerns control soleus muscle. Briefly: Effect of MCP inhibitors on control muscle protein content. Format: in vivo, rat. Conditions: Table 1; treated soleus versus vehicle-injected contralateral muscle. The text has this:
(§1) Juvenile female Sprague-Dawley rates (80-90 g) were tail-cast, hind limb suspended as in Jetspers, S. R. and Tischler, M. E., (1984) J. Appl. Physiol. 57: 1472-1479. The animal's hind limbs were elevated above the floor of the cage with each animal housed individually. Animals had free access to food and water, and were weighed at the time of suspension and at time of termination. During the suspension period the animals were checked daily to ensure that their toes were not touching the floor of the cage, and that there was no swelling of the tail due to the cast.
(§2) Animals were treated as in group B, except that 1 mM MCP inhibitor, contained in dimethysulfoxide (DMSO), was injected into the soleus of one leg and DMSO only into the contralateral soleus. Thus each experiment consisted of two control groups and the testing of MCP inhibitors of the invention. The completion of five such experiments with different pairs of inhibitors provided for an "n" value of 10 for testing each MCP inhibitor and with each tested in two different shipments of animals.
(§3) After the animal was sacrificed, the soleus was excised, trimmed of fat and connective tissue, and carefully weighed. The muscle was then homogenized in 10% trichloroacetic acid (TCA) and the precipitated protein pelleted by centrifugation. The pellet was then washed once with 10% TCA and once with ethanol:ether (1:1). The final pellet was solubilized in 4 ml of 1N sodium hydroxide. The sample was then analyzed for protein content by the biuret procedure, using albumin as a standard.
The effect of MCP inhibitors on total muscle protein content was examined primarily by paired comparison with the untreated contralateral muscle. The ratio of contents was calculated and then analyzed statistically by analysis of variance ("ANOVA"). The left leg was always the treated leg so that the protein content ratios could be compared to the non-treated control animals as well. In this way, a significant difference can be shown by comparing the protein content of the two legs, as well as the relative effectiveness of the tested MCP inhibitors. […]

Test [2] relates to processing of electroporated OVA by M12.B6 cells. Briefly: Inhibition of MHC-I processing of electroporated OVA. Type of test: cell-based, mouse. The conditions noted are these: FIGS. 2 and 3, IL-2 secretion by T hybridoma cells. As to the method: Compounds of the invention were assayed for the ability to inhibit the processing of exogenous OVA antigen by the class I major histocompatibility pathway (MHC-I). The MCP inhibitors were applied to a functional antigen processing system that allows inclusion of the inhibitor within the antigen processing cell during exposure to antigen, followed by fixation of the processing cell. T cell hybridomas are then added to the processing cells in the absence of inhibitor to determine the expression of peptide-MHC-I complexes, which reflects antigen processing prior to fixation.
Cells were grown at 37° C. in a humidified atmosphere maintained at 5% CO2 in a standard medium: DMEM (Gibco, St. Louis, Mo.) with 10% fetal calf serum (Hyclone, Logan Utah), 5×10^-5 M 2-mercaptoethanol, antibiotics and the following supplements: L-arginine HCl (116 mg/L), L-asparagine (36 mg/L), NaHCO3 (2 g/L), sodium pyruvate (1 mM). See also Harding, C. V., (1992) Eur. J. Immunol. 22: 1865-1869. […]
Electroporation was performed with a Gibco BEL Electroporator using 0.4 cm gap cuvette chambers. […] The extent of processing, (i.e., the level of specific peptide-MHC complexes expressed) was determined by the ability of the M12.B6 cells to stimulate IL-2 secretion by B3.1 or DOBW T hybridoma cells. […]

The test system of test [3] is unweighting atrophy of the soleus muscle. Briefly: Inhibition of unweighting atrophy of the soleus muscle in juvenile rats (muscle protein content). Conditions: for Protein, End (day 3 of unweighting) / Effect (%), change in protein content during day 3 of unweighting: Table 2; for Protein, End (day 3 of unweighting): 24 hours after in situ soleus injection at day 2 of unweighting, mersalyl 200 nM aqueous; for Protein, End (day 3 of unweighting) / Protein, Treatment (unweighted muscle): MCP inhibitor 1 mM in DMSO; for Effect (%), change in protein content during day 3 of unweighting: End versus Start (estimated day 2 content); for Effect (%) on unweighted muscle protein / Protein, Treatment (unweighted muscle): Table 3; for Effect (%) on unweighted muscle protein: Treatment versus Vehicle contralateral muscle; for Protein, Treatment (unweighted muscle): treated soleus, contralateral muscle received vehicle, mersalyl 200 nM. Format: in vivo, rat. As to the method: The effect of several inhibitors on the unweighting atrophy of the soleus muscle in juvenile rats was determined. See Tischler, M. E. (1990) Metabolism 39/7: 756-763 (hereinafter "Tischler--1990") for a general discussion of the procedure.
as §1
Each experiment began with the suspension of 20 rats which were randomly divided into 4 groups of 5 animals each. Group A was suspended for just 2 days and provided baseline data to approximate the soleus muscle size in other animals suspended for longer times. Average body weights for the groups at the outset of the study were compared and used as a correction factor for body size differences. […] See Tischler--1990. At 2 days after unweighting commenced, an aqueous solution of mersalyl (200 nM; 4 μl/100 g initial body wt) was injected into one soleus, as described previously. The contralateral muscle was injected with a similar volume of 0.9% saline ("Vehicle"). The animals were maintained under Innovar-vet (10 μl/100 g body wt) tranquilization during the in situ injection procedure. After the injections, the animals were suspended for an additional 24 hours and the soleus was removed. Groups C and D for each experiment were used for testing each of two different embodiments of the disclosed compounds.
as §2, §3
The effect of MCP inhibitors on total muscle protein content was examined primarily by paired comparison with the untreated contralateral muscle. The ratio of contents was calculated and then analyzed statistically by analysis of variance ("ANOVA"). The left leg was always the treated leg so that the protein content ratios could be compared to the non-treated control animals as well. In this way, a significant difference can be shown by comparing the protein content of the two legs, as well as the relative effectiveness of the tested MCP inhibitors. A paired student test was also performed for the effect of each separate treatment. The non-treated control data also provided an estimate of protein content of day 2. This allowed approximation of the protein changes over the 24 hours of treatment for each of the Groups B, C, and D.

On to `CC(C)C[C@@H](C=O)NC(=O)[C@H](CCCNC(=N)N[N+](=O)[O-])NC(=O)C(CCCCCCCCC#N)C1CCCC1` (stereo partly drawn) [Compound 14, 10-cyano-2-cyclopentyldecanoyl-N^g-nitro-L-arginyl-L-leucinal], for which the “SOD-1 levels compared to controls” value in test [1] is reported as “modestly elevated”. The “Protein, Treatment (control muscle)” value in the test on control soleus muscle is recorded as 6.1 mg/muscle. Moreover, in test [2], the “Effect on MHC-1 OVA processing” value is listed as “effectively inhibit OVA processing”. In test [3], the “Protein, End (day 3 of unweighting)” value stood at 6.4 mg/muscle; the “Effect (%), change in protein content during day 3 of unweighting” value was 0%; the “Effect (%) on unweighted muscle protein” value came to 7%; the “Protein, Treatment (unweighted muscle)” value amounted to 6.4 mg/muscle.

Turning to `COC(=O)CCCCCCCC(C(=O)N[C@@H](CCCNC(=N)NS(=O)(=O)c1c(C)c(C)c2c(c1C)CCC(C)(C)O2)C(=O)N[C@H](C=O)CC(C)C)C1CCCC1` (stereo partly drawn) [Compound 20, 9-Methoxycarbonyl-2-cyclopentyl-nonanoyl-N^g-(2,2,5,7,8-pentamethylchroman-6-sulfonyl)-L-arginyl-L-leucinal], the “Protein, Treatment (control muscle)” value in the test on control soleus muscle is 5.9 mg/muscle. The “Effect on MHC-1 OVA processing” value in test [2] is given as “effectively inhibit OVA processing”. For the same compound, in test [3], the “Protein, End (day 3 of unweighting)” value worked out at 6.2 mg/muscle; the “Effect (%), change in protein content during day 3 of unweighting” value was -4%; the “Effect (%) on unweighted muscle protein” value came to 5%; the “Protein, Treatment (unweighted muscle)” value is 6.2 mg/muscle.

The values above are taken from patent US5990083A, “Multicatalytic protease inhibitors” (Cephalon, Inc., priority 1997, dated 1999).
